Among the data in ChEMBL document CHEMBL3870346, “Development of a simple proton nuclear magnetic resonance-based procedure to estimate the approximate distribution coefficient at physiological pH (logD7.4): Evaluation and comparison to existing practices” (Bioorg Med Chem Lett, 2017) are logD and logP values, retold here.

Series [1] can be described thus: physchem. The following applies: buffer, pH 7.4.
Series [2] in a line: physchem. The conditions noted are these: 1-octanol/D2O, pH 7.4.
A short description of series [3]: n-Octanol/water partition coefficient, log P of the compound by HPLC method.

The structures appear in SMILES notation. Structures can show the parent of a compound that is named as a salt.

A word on the logD: it is the decadic logarithm of the distribution of all forms, ionised or not, between an organic phase and buffer at a given pH. The low end stands for a more hydrophilic compound, the high end for a more lipophilic compound. The compound `c1ccc2ccccc2c1` displayed a pH-dependent lipophilicity (logD) in “physchem [1]” of 3.4. With `c1ccc(Oc2ccccc2)cc1`, in “physchem [2]”, the logD was 3.5.

One may read the logP as a log measure of how a compound divides between an organic and an aqueous phase. `c1ccc2c(c1)ccc1ccccc12` displayed a logP in series [3] (n-octanol/water) of 4.5. In the series “physchem [1]”, this compound gave a logD of 4.5. The compound `Cc1ccc(CO)cc1` yielded a logP in series [3] (n-octanol/water) of 1.6. In addition, the logD in the series “physchem [2]” came to 1.4; in the series “physchem [1]”, 1.8. The compound `Nc1ccc(Cl)cc1` [4-CHLOROANILINE] showed a logD in the series “physchem [2]” of 1.8. Take `CC(=O)Nc1ccc(O)cc1` [ACETAMINOPHEN]: the logD in “physchem [2]” was 0.2. In series [3] (octanol/water), `CC(=O)Nc1ccccc1` [ACETANILIDE] showed a logP of 1. In addition, the logD in the series “physchem [2]” was found to be 0.7; in the series “physchem [1]”, 1.2.

`CC(=O)c1ccccc1` [ACETOPHENONE]: in the series “physchem [2]”, the logD amounted to 1.7. Consider `COc1ccccc1` [ANISOLE], for which the logD in the series “physchem [2]” and in “physchem [1]” was 2.3 throughout. The compound `N#Cc1ccccc1` [BENZONITRILE] came in with a logP in series [3] (n-octanol/water) of 1.6. This compound had a log distribution coefficient (logD) in the series “physchem [2]” of 1.6.

`OCc1ccccc1` [BENZYL ALCOHOL] had a log distribution coefficient (logD) in “physchem [2]” of 0.9. In series [3] (octanol/water), `c1ccc(-c2ccccc2)cc1` [BIPHENYL] came in with a logP of 4. Further, the logD in the series “physchem [1]” is 4. In the case of `CCC(C)=O` [BUTANONE], in series [3] (n-octanol/water), the lipophilicity (logP) was 0.3. For the same compound, the logD in the series “physchem [2]” amounted to 0.4; in “physchem [1]”, 0.3. As for `Clc1ccccc1` [CHLOROBENZENE], the log partition coefficient (logP) in series [3] (n-octanol/water) was 2.8. The logD stood at 2.6 in “physchem [2]” and 2.9 in “physchem [1]”. In the case of `CCOC(=O)c1ccccc1` [ETHYL BENZOATE], the logD in the series “physchem [2]” came out at 2.4. With `COc1ccc(O)cc1` [MEQUINOL], the logP in series [3] (n-octanol/water) worked out at 1.3. Moreover, the logD in “physchem [2]” was found to be 0.8; in “physchem [1]” it was 1.3. `COC(=O)c1ccccc1` [METHYL BENZOATE] registered a logD in the series “physchem [2]” of 1.9. On to `O=[N+]([O-])c1ccccc1O` [NITROPHENOLATE], for which the logP in series [3] (n-octanol/water) turned out to be 1.8. In the series “physchem [2]”, this compound displayed a logD of 1.5. In the case of `Oc1ccccc1` [PHENOL], the logD in the series “physchem [2]” was found to be 1.2; in “physchem [1]”, 1.3. For the compound `CCN(CC)CCOC(=O)c1ccc(N)cc1` [PROCAINE HYDROCHLORIDE], in the series “physchem [2]”, the pH-dependent lipophilicity (logD) was -0.4. `Cc1ccc(O)cc1` [p-CRESOL] came in with a logP in series [3] (octanol/water) of 1.9. The results for the logD in “physchem [2]” and in the series “physchem [1]” were 2 and 1.8, respectively.
